Data: patent US9206236B2, “Peptides for treating cancer” (Gene Signal International SA, priority 2010, dated 2015)
“Also recorded” adds a separate entry of the source. Where a SMILES comes first, the peptide text is derived from it. [ ]: non-standard residue; d: D form. pY = N[C@@H](Cc1ccc(OP(=O)(O)O)cc1)C(=O)O

Tests used:
[1] = test system: human microvascular endothelial cells (HMEC); test: In vitro angiogenesis assay (Matrigel tube formation); assay type: cell-based; conditions: 500 μg/ml final concentration of peptide, images at 18 h
Protocol: Angiogenesis of human microvascular endothelial cells (HMEC) was induced in vitro using a Matrigel assay described by Al-Mahmood et al (2009, JPET, 2009; 58:933). This method is based on the differentiation of endothelial cells to form capillary structures on a Matrigel Matrix. Matrigel is prepared the Engelbreth-Holm-Swarm (EHS) mouse tumor, which represents a complex mixture of basement membrane proteins including type IV collagen, entactin, proteo-heparan sulfate and other growth factors.
Briefly, 250 μl of Matrigel were transferred to each well of a 24-well culture plate and incubated at 37° C. for 30 min to allow for the matrix solution to solidify. HMEC grown in complete growth medium EGM-2MV were harvested by trypsin, suspended in the same growth medium and 500 μl containing 70 000 cells were added on top of the solidified Matrigel in each well and in the presence or absence of peptide. Cells were maintained in a humidified atmosphere air containing 5% CO2 at 37° C. for 18-24 hrs. Endothelial tube formation was observed and photographed under an inverted light microscope.
The designed tyrosine phosphorylated and non phosphorylated peptides were tested for their influence onto the in vitro angiogenesis. The results of the in vitro angiogenesis assay were presented in FIG. 1, using HMEC and 500 μg/ml final concentration of each peptide.

[2] = target: T1, recruitment of the regulatory subunit (p85) of the enzyme PI-3K by IRS-1 (Homo sapiens, UniProt P27986); test: Recruitment of p85 of PI-3K by IRS-1 (IRS-1 immunoprecipitation, anti-p85 immunoblot) in HMEC; assay type: cell-based; conditions: final concentration of peptide 500 μg/ml
T1 construct: endogenous in cells; host or cells: human microvascular endothelial cells (HMEC)
T1 sequence (P27986 whole entry): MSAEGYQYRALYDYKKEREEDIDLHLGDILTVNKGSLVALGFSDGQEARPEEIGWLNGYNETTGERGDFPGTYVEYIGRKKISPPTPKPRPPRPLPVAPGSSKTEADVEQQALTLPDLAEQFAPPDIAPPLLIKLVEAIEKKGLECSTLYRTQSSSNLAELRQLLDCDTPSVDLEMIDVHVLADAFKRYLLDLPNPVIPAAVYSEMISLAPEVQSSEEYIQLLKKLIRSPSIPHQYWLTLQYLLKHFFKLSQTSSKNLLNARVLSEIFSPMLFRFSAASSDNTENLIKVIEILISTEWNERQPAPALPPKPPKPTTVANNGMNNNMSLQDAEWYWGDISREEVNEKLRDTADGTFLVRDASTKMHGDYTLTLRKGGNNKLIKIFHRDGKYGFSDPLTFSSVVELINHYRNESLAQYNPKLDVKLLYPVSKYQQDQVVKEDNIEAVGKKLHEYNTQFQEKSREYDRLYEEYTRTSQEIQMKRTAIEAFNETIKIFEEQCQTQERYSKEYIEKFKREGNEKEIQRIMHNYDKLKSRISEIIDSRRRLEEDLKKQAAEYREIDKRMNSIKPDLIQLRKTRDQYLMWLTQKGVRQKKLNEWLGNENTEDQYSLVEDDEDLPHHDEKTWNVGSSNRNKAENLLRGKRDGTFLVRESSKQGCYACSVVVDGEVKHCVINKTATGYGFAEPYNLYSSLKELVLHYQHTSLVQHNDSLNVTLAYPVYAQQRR
Protocol: (§1) Human EC grown in EGM-2MV (80% confluence) were incubated with the peptides of the invention or vehicle for the indicated time, washed three times in cold PBS and directly lysed in 2 ml of ice-cold lysis buffer (10 mM Tris pH 7.5, 150 mM NaCl, 1 mM PMSF, 0.5 μg/ml leupeptin, 1 μg/ml pepstatin A, and 1 μg/ml aprotinin) by incubation for 30 min at 4° C. Cell lysate were spun at […] for 10 min, insoluble materials were discarded, and protein contents measured by Bradford assay of supernatants were adjusted. Cell lysate (1 ml) was precleared with 25 μl of protein G-plus agarose beads (Santa Cruz) for 30 min, and proteins were then immunoprecipitated by adding 2 μg of the indicated antibody and incubated for 1 hr. The immunocomplex was pulled down with protein G-plus agarose beads and the beads were washed three times with lysis buffer. The immunoprecipitates were separated by NuPAGE® 4-12% Bis-Tris gel electrophoresis under reducing conditions, transferred to PVDF membrane (Novex System, Invitrogen), and the membrane was blocked with 5% (w/v) non-fat milk in TBS containing 0.1% v/v Tween-20 for 1 hr.
As it is widely admitted that the tyrosine phosphorylation of IRS-1 leads to its association with the regulatory subunit (p85) of the enzyme PI-3K, and this event lead to important increases in the enzymatic activity of this later, we have investigated the influence of the tyrosine phosphorylated and non phosphorylated peptides onto the recruitment of the regulatory subunit (p85) of the enzyme PI-3K by IRS-1. For that, human microvascular endothelial cells (HMEC) were incubated with the tyrosine phosphorylated and non phosphorylated peptides (final concentration of peptide 500 μg/ml) followed by cells lysis and immuoprecipitation of the protein IRS-1. The immunoprecipitates were then resolved in SDS-PAGE, proteins were transferred to membranes, and the membranes were immunoblotted with an anti-p85 PI3K monoclonal antibody.

mTOR = mTOR status in HMEC after incubation with peptides (anti-mTor antibody Ser2448); assay type: cell-based, human
Protocol: as §1
The status of mTOR in the HMEC following incubation with peptides GS-0 and GS-1 was investigated.

NCI-H460 tumors = test: NCI-H460 tumor xenograft in nude mice, tumor volume (Example 3); assay type: in vivo
Protocol: H460 cell line has cytology compatible with human Non-Small Cell Lung Cancer (NSCL). Cells were grown in MEM medium containing 10% FCS at 37° C., 5% CO2 humidified atmosphere. The absence of mycoplasms was confirmed by using the PCR Mycoplasma Detection kit (Takara). All experiments were reviewed by the Genopole's institutional animal care and use committee and were performed in accordance with institutional guidelines for animal care. Female BALB/c nu/nu mice (n=30) were used at 5-6 weeks of age. The animals were housed in laminar air-flow cabinets under pathogen-free conditions with a 12 h light/12 h dark schedule, and fed autoclaved standard chow and water ad libitum. The NCI-H460 human NSCL cell line was obtained from American Type Culture Collection (ATCC) were grown in RPMI medium 1640 supplemented with 1 μM sodium pyruvate. Tumor cells (10^7 cells in 200 μl of HBSS) were injected subcutaneously into the right flanks of mice. After engraftment, tumor volume was measured by Vernier callipers, and calculated as described in Balsam A et al. (Balsari A et al. (2004) Eur J Cancer 40: 1275-1281). At tumor volume about 150 mm^3, animals were randomized, and separated into five groups of five animals. Control mice (group 1) were intraperitoneally injected with vehicle (10% DMSO in buffer saline) every day. GS-0 was dissolved in vehicle and intraperitoneally injected (group 2) every day (12 injections). GS-2 was dissolved in vehicle and intraperitoneally injected (group 3) every day (12 injections). Tumor volume and body weight were measured every other day over the treatment period (12 days). GS-2 as well as the control peptide GS-0 were solubilized in DMSO and the resulting solutions were diluted 10 times with phosphate buffer saline (PBS) to obtain a concentration of 1 mg of peptide/ml of 10% DMSO in PBS. At this concentration, all peptides were soluble in 10% DMSO.

[3] = Body weight and toxicity of mice bearing NCI-H460 tumors (Example 3); assay type: in vivo
Protocol: All experiments were reviewed by the Genopole's institutional animal care and use committee and were performed in accordance with institutional guidelines for animal care. Female BALB/c nu/nu mice (n=30) were used at 5-6 weeks of age. The animals were housed in laminar air-flow cabinets under pathogen-free conditions with a 12 h light/12 h dark schedule, and fed autoclaved standard chow and water ad libitum. […] Tumor cells (10^7 cells in 200 μl of HBSS) were injected subcutaneously into the right flanks of mice. […] At tumor volume about 150 mm^3, animals were randomized, and separated into five groups of five animals. Control mice (group 1) were intraperitoneally injected with vehicle (10% DMSO in buffer saline) every day. GS-0 was dissolved in vehicle and intraperitoneally injected (group 2) every day (12 injections). GS-2 was dissolved in vehicle and intraperitoneally injected (group 3) every day (12 injections). Tumor volume and body weight were measured every other day over the treatment period (12 days).

[4] = Solubility of peptides in 10% DMSO in PBS; assay type: physicochemical; conditions: 1 mg of peptide/ml of 10% DMSO in PBS
Protocol: GS-1 as well as the control peptide GS-0 were solubilized in DMSO and the resulting solutions were diluted 10 times with phosphate buffer saline (PBS) to obtain a concentration of 1 mg of peptide/ml of 10% DMSO in PBS. At this concentration, all peptides were soluble in 10% DMSO.
GS-2 as well as the control peptide GS-0 were solubilized in DMSO and the resulting solutions were diluted 10 times with phosphate buffer saline (PBS) to obtain a concentration of 1 mg of peptide/ml of 10% DMSO in PBS. At this concentration, all peptides were soluble in 10% DMSO.

Compound: CSCC[C@H](NC(=O)[C@H](CC(N)=O)NC(=O)[C@H](CCSC)NC(=O)[C@H](Cc1ccc(OP(=O)(O)O)cc1)NC(=O)[C@H](CCC(=O)O)NC(C)=O)C(=O)N[C@@H](CC(=O)O)C(N)=O [GS-2, EpYMNMD] (Ac-E[pY]MNMD-NH2)
- in vitro angiogenesis-inhibitory activity [1]: have in vitro angiogenesis-inhibitory activities
- influence onto the recruitment of the regulatory subunit (p85) of PI3K by IRS-1 [2]: moderate inhibitory effects
- amounts of mTOR in HMEC relative to vehicle (mTOR): much less amounts of mTOR
- influence on the in vivo growth of the tumor NCI-H460 (in words) (NCI-H460 tumors; 8 mg/kg i.p. daily for 12 days): highly significant and potent influence; also recorded: statistically significant and potent anti-tumoral activity
- mean tumor volume at the end of treatment (NCI-H460 tumors; 8 mg/kg i.p. daily for 12 days, n=5): 297.28 ± 142.67 mm^3
- Mean tumor volume D1 (NCI-H460 tumors; Table 4, 8 mg/kg i.p. daily, day 1): 124 mm³
- Mean tumor volume D3 (NCI-H460 tumors; Table 4, 8 mg/kg i.p. daily, day 3): 129 mm³
- Mean tumor volume D5 (NCI-H460 tumors; Table 4, 8 mg/kg i.p. daily, day 5): 163 mm³
- Mean tumor volume D7 (NCI-H460 tumors; Table 4, 8 mg/kg i.p. daily, day 7): 174 mm³
- Mean tumor volume D9 (NCI-H460 tumors; Table 4, 8 mg/kg i.p. daily, day 9): 254 mm³
- Mean tumor volume D11 (NCI-H460 tumors; Table 4, 8 mg/kg i.p. daily, day 11): 297 mm³
- Mean tumor volume D13 (NCI-H460 tumors; Table 4, 8 mg/kg i.p. daily, day 13): 297 mm³
- toxicity and body weight loss during treatment ([3]; 8 mg/kg intraperitoneally every day, 12 injections): No toxicity and no body weight loss
- Mean body weight D1 ([3]; Table 3, 8 mg/kg i.p. daily, day 1, in g): 22.59
- Mean body weight D3 ([3]; Table 3, 8 mg/kg i.p. daily, day 3, in g): 22.32
- Mean body weight D5 ([3]; Table 3, 8 mg/kg i.p. daily, day 5, in g): 22.78
- Mean body weight D7 ([3]; Table 3, 8 mg/kg i.p. daily, day 7, in g): 23.10
- Mean body weight D9 ([3]; Table 3, 8 mg/kg i.p. daily, day 9, in g): 23.00
- Mean body weight D11 ([3]; Table 3, 8 mg/kg i.p. daily, day 11, in g): 23.51
- Mean body weight D13 ([3]; Table 3, 8 mg/kg i.p. daily, day 13, in g): 23.05
- solubility in 10% DMSO [4]: soluble
